Several values for one entry are separate records, joined by “and”; a condition that tells them apart may be missing. Identical values can stand only once. Like-named read-outs stand apart in the source and are kept apart here. Where a SMILES comes first, the peptide text is derived from it.
Tests used:
rhPSMA = target: T1, rhPSMA (Homo sapiens, UniProt Q04609); assay: PSMA inhibition assay; assay type: biochemical; conditions: for RFU: KM measurement; for Relative Fluorescence Units: glutamic acid readout, Amplex Red
T1 construct: purchased R&D research
T1 sequence (Q04609 whole entry): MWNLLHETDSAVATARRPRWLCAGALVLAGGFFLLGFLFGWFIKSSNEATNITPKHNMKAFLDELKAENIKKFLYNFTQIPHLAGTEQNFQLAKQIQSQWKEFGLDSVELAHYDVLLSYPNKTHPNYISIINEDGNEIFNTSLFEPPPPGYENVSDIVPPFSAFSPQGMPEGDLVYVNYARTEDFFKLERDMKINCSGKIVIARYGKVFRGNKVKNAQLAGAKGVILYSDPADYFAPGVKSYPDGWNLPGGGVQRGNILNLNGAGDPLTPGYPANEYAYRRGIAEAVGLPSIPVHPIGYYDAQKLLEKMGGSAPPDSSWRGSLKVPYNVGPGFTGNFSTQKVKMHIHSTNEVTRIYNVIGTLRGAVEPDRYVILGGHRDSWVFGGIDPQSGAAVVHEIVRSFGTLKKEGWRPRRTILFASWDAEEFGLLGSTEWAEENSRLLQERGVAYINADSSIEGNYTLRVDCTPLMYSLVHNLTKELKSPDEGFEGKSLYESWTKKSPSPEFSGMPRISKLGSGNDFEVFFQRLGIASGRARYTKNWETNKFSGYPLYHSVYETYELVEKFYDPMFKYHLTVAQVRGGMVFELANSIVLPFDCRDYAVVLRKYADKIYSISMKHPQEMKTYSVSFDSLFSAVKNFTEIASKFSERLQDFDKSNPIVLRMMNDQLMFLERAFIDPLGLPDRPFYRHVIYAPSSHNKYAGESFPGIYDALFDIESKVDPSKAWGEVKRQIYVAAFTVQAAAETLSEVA
Experimental: A 10 mM solution of N-acetyl-aspartyl-glutamate (NAAG) in 40 mM NaOH was diluted to 40 μM in Reaction Buffer (0.1 M Tris-HCl, pH=7.5), and the solution was added to a 384 well plate (10 μL per well). For KM measurements and KM negative controls (absence of PSMA), the NAAG solution was serially diluted 2-fold to obtain final NAAG concentrations ranging […]. […] To initiate reactions, 10 μL of rhPSMA ([…] in Reaction Buffer, R&D research) was added to each well. Reaction Buffer (10 μL) was added to the KM control series. The plate was incubated at 37° C. for 30 min, and then heated to 95° C. for 3 min. Levels of glutamic acid were quantified using Amplex® Red Glutamic Acid/Glutamate Oxidase Assay Kit (Invitrogen). Fluorescence intensities were measured using a SpectraMax Gemini EM microplate reader (GMI) with excitation and emission filters of 545 and 590 nm, respectively. Ki values were calculated using the Cheng-Prusoff equation from IC50 and KM values and these values were calculated using GraphPad Prism software. […] All reported data represent the mean of triplicate experiments.

C4-2 cells = assay: Prophylactic mouse xenograft model, C4-2 cells mixed with hPBMCs; assay type: in vivo, NOD/SCID mice; conditions: 2 mg/kg IV daily for 10 days from Day 4; monitored 6 weeks
Experimental: FIG. 12 depicts in vivo efficacy studies of P-targeting agent antibody conjugate. In the prophylactic model, 1×10^6 C4-2 cells were mixed with 2×10^6 PBMCs (1:2 ratio) in Matrigel and injected SC into the right shoulder of male NOD-SCID mice. P-targeting agent antibody conjugate, unconjugated Fab, or PBS (n=6) were administered at 2 mg/kg everyday for 10 days by IV starting on Day 4. Tumors were monitored by external caliper measurements for regular intervals for 6 weeks.
We next established a mouse xenograft model to evaluate the in vivo efficacy of P-targeting agent antibody conjugate. Immunodeficient NOD/SCID mice were subcutaneously injected with a mixture of 1×10^6 C4-2 cells and 2×10^6 hPBMCs in matrigel (BD Bioscience). After 4 days, treatment was initiated by injecting 2 mg/kg of drug via the tail vein and continued for 10 days (n=6). In a control group, mice were injected with an unconjugated mixture of P-Phthal (3) and UCHT1 wild-type Fab, and another group of mice was injected with vehicle alone (n=6). Tumor growth was monitored by external caliper measurement. […] After confirming the prophylactic efficacy of P-targeting agent antibody conjugate, we carried a xenograft model in which we delayed treatment until we observed the formation of a palpable tumor. […]

CD3 = CD3 (Macaca fascicularis, UniProt Q95LI5); assay: Cyno cross-reactivity of anti-CD3 antibody; assay type: binding, cynomolgus macaque
CD3, sequence (Q95LI5 22-198): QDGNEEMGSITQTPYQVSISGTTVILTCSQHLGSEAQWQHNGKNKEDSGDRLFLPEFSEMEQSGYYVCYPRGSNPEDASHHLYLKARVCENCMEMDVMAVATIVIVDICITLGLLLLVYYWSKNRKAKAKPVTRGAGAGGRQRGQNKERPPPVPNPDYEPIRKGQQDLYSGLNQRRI
CD3, sequence (Q95LI8 22-171 partner): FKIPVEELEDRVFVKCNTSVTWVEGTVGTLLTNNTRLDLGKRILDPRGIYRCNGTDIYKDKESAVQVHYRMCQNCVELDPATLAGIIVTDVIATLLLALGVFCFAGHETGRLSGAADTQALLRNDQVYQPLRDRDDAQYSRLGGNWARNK
CD3, sequence (Q95LI7 23-181 partner): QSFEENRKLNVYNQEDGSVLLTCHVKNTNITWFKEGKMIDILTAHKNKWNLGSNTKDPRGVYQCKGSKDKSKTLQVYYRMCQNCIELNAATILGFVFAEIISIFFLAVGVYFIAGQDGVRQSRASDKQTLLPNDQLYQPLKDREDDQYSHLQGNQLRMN

C4-2 (PSMA+) cells = assay: In vitro cytotoxicity assays, C4-2 cells with PBMCs, 24 and 48 hours (Example 5); assay type: cell-based, human
Experimental: Peripheral blood mononuclear cells (PBMCs) were purified from fresh healthy human donor blood by conventional Ficoll-Hypaque gradient centrifugation. Purified PBMCs were washed and incubated in flasks in RPMI media with 10% FBS for 1 hours to remove any adherent cells. C4-2 (PSMA+) cells (target cells) were dissociated with 0.05% tryspin/EDTA solution (HyClone) and washed with RPMI with 10% FBS. 1×10^4 target cells were mixed with PBMCs at 1:10 ratio in […], and incubated with different concentrations of conjugated and unconjugated Fabs ([…]) for 24 and 48 hours at 37° C. Cytotoxicity of each well was measured for LDH (lactate dehydrogenase) levels in supernatant using Cytotox-96 non-radioactive cytotoxicity assay kit (Promega). Lysis solution ([…], provided in the same kit) was added to wells with only target cells to get the maximum killing, and spontaneous killing was measured from wells with effector and target cells treated with vehicle ([…]). The absorbance at 490 nm was recorded using SpectraMax 250 plate reader (Molecular Devices Corp.). Percent cytotoxicity was calculated by: % Cytotoxicity=(Absorbanceexpt−Absorbancespontaneous average)/(Absorbancemax killing average−Absorbancespontaneous average)×100

[1] = Pharmacokinetics in rats, intravenous, sandwich-ELISA; assay type: in vivo, Sprague Dawley rats; conditions: rat, 0.5 mg/kg
Experimental: We first evaluated the pharmacokinetics of the P-targeting agent antibody conjugate. Male Sprague Dawley rats (Charles River) were injected intravenously at time zero at 1 and 5 mg/kg for P-targeting agent antibody conjugate or 0.5 mg/kg for the unconjugated UCHT1 Fab. Blood was collected at regular intervals to 32 hours and processed to measure drug concentrations using a sandwich-ELISA. […] Also, the small size of P-targeting agent antibody conjugate may be advantageous for penetrating solid tumors.

mPSMA = mPSMA (Mus musculus, UniProt O35409); conditions: cited from earlier work
mPSMA, sequence (O35409 whole entry): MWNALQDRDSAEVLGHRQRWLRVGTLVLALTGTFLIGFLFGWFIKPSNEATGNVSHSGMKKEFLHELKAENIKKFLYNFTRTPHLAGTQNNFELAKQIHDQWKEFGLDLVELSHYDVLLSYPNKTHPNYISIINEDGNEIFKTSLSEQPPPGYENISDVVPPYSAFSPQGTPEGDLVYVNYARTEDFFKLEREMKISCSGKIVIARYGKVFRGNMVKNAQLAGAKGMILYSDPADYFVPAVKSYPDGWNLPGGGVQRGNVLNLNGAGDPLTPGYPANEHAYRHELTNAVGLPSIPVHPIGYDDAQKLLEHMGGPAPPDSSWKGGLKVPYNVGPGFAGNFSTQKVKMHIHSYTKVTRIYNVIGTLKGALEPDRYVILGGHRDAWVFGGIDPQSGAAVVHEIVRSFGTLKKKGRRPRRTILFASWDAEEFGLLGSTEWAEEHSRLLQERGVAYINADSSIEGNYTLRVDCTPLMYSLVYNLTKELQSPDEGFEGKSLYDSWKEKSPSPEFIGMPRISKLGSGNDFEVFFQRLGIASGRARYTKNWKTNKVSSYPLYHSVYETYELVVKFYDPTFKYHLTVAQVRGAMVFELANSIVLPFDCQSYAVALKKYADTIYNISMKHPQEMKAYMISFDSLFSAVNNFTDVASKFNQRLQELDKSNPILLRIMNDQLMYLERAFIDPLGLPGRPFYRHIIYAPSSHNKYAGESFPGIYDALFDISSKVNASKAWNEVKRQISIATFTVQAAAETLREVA

cynoPSMA = conditions: previous reports; cited from earlier work
[2] = average of three trials, read-out: Average Ki
[3] = enzyme-based inhibition assay, read-out: average Ki

Compound | IC50 (rhPSMA; Trials 1-3) | Ki (rhPSMA; [2]) [nM] | Relative Fluorescence Units (rhPSMA; inhibitor 0.0000256 μM) | Relative Fluorescence Units (rhPSMA; inhibitor 0.000128 μM) | Relative Fluorescence Units (rhPSMA; inhibitor 0.00064 μM) | Relative Fluorescence Units (rhPSMA; inhibitor 0.0032 μM) | Relative Fluorescence Units (rhPSMA; inhibitor 0.016 μM) | Relative Fluorescence Units (rhPSMA; inhibitor 0.08 μM) | Relative Fluorescence Units (rhPSMA; inhibitor 0.4 μM) | Relative Fluorescence Units (rhPSMA; inhibitor 2 μM) | Relative Fluorescence Units (rhPSMA; inhibitor 10 μM) | Relative Fluorescence Units (rhPSMA; inhibitor 50 μM) | Ki (rhPSMA; [3]) [nM] | other results
CC(=O)N[C@@H](CC(=O)O)C(=O)N[C@@H](CCC(=O)O)C(=O)O [NAAG, N-acetyl-aspartyl-glutamate, reference compound] (Ac-Asp-Glu-OH) | – | – | – | – | – | – | – | – | – | – | – | – | – | RFU (rhPSMA; NAAG 0.15625 μM): 403; RFU (rhPSMA; NAAG 0.3125 μM): 400.6455; RFU (rhPSMA; NAAG 0.625 μM): 422.2; RFU (rhPSMA; NAAG 1.25 μM): 434.8145; RFU (rhPSMA; NAAG 2.5 μM): 447; RFU (rhPSMA; NAAG 5 μM): 480.622; RFU (rhPSMA; NAAG 10 μM): 549.6; RFU (rhPSMA; NAAG 20 μM): 653.474; Km (rhPSMA; substrate NAAG): 0.288 µM
NOCC(=O)NCCOCCOCCNc1cc(NCCOCCOCCNC(=O)CCCCCCCNC(=O)CCC(NC(=O)NC(CCC(=O)O)C(=O)O)C(=O)O)c([N+](=O)[O-])cc1[N+](=O)[O-] (stereo not drawn) [P-DNP] | 7.28 nM and 4.46 nM and 4.58 nM | 0.0482 | 1650.519 | 1558 | 1413.9875 | 1123.0625 | 896.8 | 704.2 | 622.7 | 586.843 | 581.8 | 525.6755 | – | –
NOCC(=O)NCCOCCOCCNC(=O)c1ccc(C(=O)NCCOCCOCCNC(=O)CCCCCCCNC(=O)CCC(NC(=O)NC(CCC(=O)O)C(=O)O)C(=O)O)cc1 (stereo not drawn) [P-Phthal] | 208 nM and 397 nM and 223 nM | 1.98 | 1609 | 1592.5445 | 1633.913 | 1542.606 | 1387.603 | 1274 | 1021 | 798.9 | 688.1815 | 581.035 | 2 | –
NOCC(=O)NCCOCCOCCOCCNC(=O)c1ccc(C(=O)NCCCCCCc2cn(CCCC[C@H](NC(=O)N[C@@H](CCC(=O)O)C(=O)O)C(=O)O)nn2)cc1 [P-TriA, (S)-2-(3-((S)-5-(4-(6-(4-(1-(aminooxy)-2-oxo-6,9,12-trioxa-3-azatetradecan-14-ylcarbamoyl)benzamido)hexyl)-1H-1,2,3-triazol-1-yl)-1-carboxypentyl)ureido)pentanedioic acid] | – | 0.00478 | 1619 | 1499.6145 | 1259 | 950.487 | 817.1 | 664.949 | 586.721 | 562.9 | 599.969 | 559.8 | 0.0048 | Ki (rhPSMA; Trials 1-3, Cheng-Prusoff equation from IC50 and KM, read-out: Ki): 0.00613 nM and 0.0023 nM and 0.00591 nM; enhanced affinity (rhPSMA; compared to P-Phthal): more than 400 fold
wt-UCHT1 | – | – | – | – | – | – | – | – | – | – | – | – | – | tumor growth (in words) (C4-2 cells): developed rapid tumors; cyno cross-reactivity (in words) (CD3): not sufficiently cyno cross-reactive; % Cytotoxicity (C4-2 (PSMA+) cells; 24 h, 0.0512 pM): −0.1753%; % Cytotoxicity (C4-2 (PSMA+) cells; 24 h, 0.256 pM): −0.8764%; % Cytotoxicity (C4-2 (PSMA+) cells; 24 h, 1.28 pM): −0.9115%; % Cytotoxicity (C4-2 (PSMA+) cells; 24 h, 6.4 pM): −0.4733%; % Cytotoxicity (C4-2 (PSMA+) cells; 24 h, 32 pM): −0.7537%; % Cytotoxicity (C4-2 (PSMA+) cells; 24 h, 160 pM): −0.4032%; % Cytotoxicity (C4-2 (PSMA+) cells; 24 h, 800 pM): 1.192%; % Cytotoxicity (C4-2 (PSMA+) cells; 24 h, 4000 pM): 1.858%; % Cytotoxicity (C4-2 (PSMA+) cells; 48 h, 0.01024 pM): −0.609%; % Cytotoxicity (C4-2 (PSMA+) cells; 48 h, 0.0512 pM): −1.023%; % Cytotoxicity (C4-2 (PSMA+) cells; 48 h, 0.256 pM): −0.5196%; % Cytotoxicity (C4-2 (PSMA+) cells; 48 h, 1.28 pM): −0.0812%; % Cytotoxicity (C4-2 (PSMA+) cells; 48 h, 6.4 pM): −0.4872%; % Cytotoxicity (C4-2 (PSMA+) cells; 48 h, 32 pM): −1.104%; % Cytotoxicity (C4-2 (PSMA+) cells; 48 h, 160 pM): −0.9419%; % Cytotoxicity (C4-2 (PSMA+) cells; 48 h, 800 pM): 4.872%; circulating half-life [1]: ~1 h
O=C(O)CCC(NC(=O)NC(CCC(=O)O)C(=O)O)C(=O)O (stereo not drawn) [DUPA, 2-[3-(1,3-dicarboxypropy)ureidol]pentanedioic acid] | – | – | – | – | – | – | – | – | – | – | – | – | – | binding to mPSMA (in words) (mPSMA): strongly binds; inhibition of glutamate carboxy peptidase activity of cynoPSMA (in words) (cynoPSMA): efficiently inhibited

— patent publication US11377496B2, “Targeting agent antibody conjugates and uses thereof” (The Scripps Research Institute, priority 2013, dated 2022)
